{
  "source": "ChEMBL document CHEMBL2406976",
  "about": "“Discovery of Inhibitors of Burkholderia pseudomallei Methionine Aminopeptidase with Antibacterial Activity” (ACS Med Chem Lett, 2013)",
  "key": {"[1]": {"test_system": "Burkholderia pseudomallei", "assay": "Antibacterial activity against Burkholderia pseudomallei assessed as bacterial growth inhibition", "assay_type": "functional"}, "[2]": {"assay": "Inhibition of Burkholderia pseudomallei recombinant methionine aminopeptidase 1 using H-Met-Gly-Pro-7-amino-4-methylcoumarin hydrochloride as substrate measured for 10 mins by fluorescence assay in presence of human recombinant DPP4"}, "[3]": {"test_system": "Burkholderia thailandensis", "assay": "Antibacterial activity against Burkholderia thailandensis E264 assessed as bacterial growth inhibition at 1 mM after 24 hrs by two-fold dilution method relative to DMSO-treated control", "assay_type": "functional", "settings": "for inhibition of growth at 1000 µM: E264, 24 h, read-out: GI"}, "[4]": {"test_system": "Burkholderia thailandensis", "assay": "Antibacterial activity against Burkholderia thailandensis E264 assessed as bacterial growth inhibition at 0.5 mM after 24 hrs by two-fold dilution method relative to control", "assay_type": "functional"}, "[5]": {"test_system": "Burkholderia pseudomallei", "assay": "Antibacterial activity against Burkholderia pseudomallei 1026b assessed as bacterial growth inhibition after 24 hrs by two-fold dilution method", "assay_type": "functional, organism-based"}, "[6]": {"test_system": "Burkholderia pseudomallei", "assay": "Antibacterial activity against Burkholderia pseudomallei Bp340 assessed as bacterial growth inhibition at 31.25 uM after 24 hrs by two-fold dilution method", "assay_type": "functional, organism-based"}, "[7]": {"test_system": "Burkholderia thailandensis", "assay": "Bactericidal activity against Burkholderia thailandensis E264 assessed as cell death after 24 hrs by two-fold dilution method", "assay_type": "functional", "settings": "E264, 24 h"}, "[8]": {"test_system": "Burkholderia thailandensis", "assay": "Antibacterial activity against Burkholderia thailandensis E264 assessed as bacterial growth inhibition after 24 hrs by two-fold dilution method", "assay_type": "functional", "settings": "E264, 24 h"}, "[9]": {"target": "Methionine aminopeptidase 1 (Homo sapiens, UniProt P53582)", "assay": "Inhibition of human methionine aminopeptidase 1"}, "[10]": {"target": "Methionine aminopeptidase 2 (Homo sapiens, UniProt P50579)", "sequence (P50579 whole entry)": "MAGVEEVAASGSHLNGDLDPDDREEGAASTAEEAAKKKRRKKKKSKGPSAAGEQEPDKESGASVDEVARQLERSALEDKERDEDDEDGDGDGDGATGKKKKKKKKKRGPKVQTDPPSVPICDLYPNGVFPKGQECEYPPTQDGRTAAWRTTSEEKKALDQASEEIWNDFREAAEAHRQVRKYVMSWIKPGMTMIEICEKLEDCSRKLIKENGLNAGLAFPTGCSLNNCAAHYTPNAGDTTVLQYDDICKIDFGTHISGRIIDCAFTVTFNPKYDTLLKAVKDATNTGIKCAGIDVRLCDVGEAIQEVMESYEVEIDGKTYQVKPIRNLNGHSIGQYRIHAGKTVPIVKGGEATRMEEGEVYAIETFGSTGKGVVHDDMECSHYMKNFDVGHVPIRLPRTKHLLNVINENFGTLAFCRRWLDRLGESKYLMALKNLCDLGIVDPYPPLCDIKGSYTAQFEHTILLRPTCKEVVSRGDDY", "assay": "Inhibition of human methionine aminopeptidase 2"}, "[11]": {"test_system": "Burkholderia thailandensis", "assay": "Bactericidal activity against Burkholderia thailandensis E264 assessed as cell death at 1 mM after 24 hrs by two-fold dilution method", "assay_type": "functional"}},
  "note": "Calls of active or inactive are those of the source. No cut-off for these calls is given here.",
  "data": [
    {"smiles": "CC(C)(O/N=C(\\C(=O)N[C@@H]1C(=O)N2C(C(=O)[O-])=C(C[n+]3ccccc3)CS[C@H]12)c1csc(N)n1)C(=O)O", "note": "[CEFTAZIDIME]", "values": [
      {"measurement": "MIC", "setting": "[1]", "result": 1, "unit": "µg/mL"}
    ]},
    {"smiles": "O=[N+]([O-])c1cc(CN2CCSCC2)c(O)c2ncccc12", "values": [
      {"measurement": "IC50", "setting": "[2]", "result": "> 250", "unit": "µM"}
    ]},
    {"smiles": "Nc1nnc(SCc2ccc(Cl)cc2Cl)[nH]1", "values": [
      {"measurement": "inhibition of growth at 1000 µM", "setting": "[3]", "result": "≤ 26", "unit": "%"},
      {"measurement": "IC50", "setting": "[2]", "result": 1, "unit": "µM"}
    ]},
    {"smiles": "Nc1nnc(SCc2ccc(F)c(F)c2)[nH]1", "values": [
      {"measurement": "inhibition of growth at 1000 µM", "setting": "[3]", "result": "≤ 26", "unit": "%"},
      {"measurement": "IC50", "setting": "[2]", "result": "> 250", "unit": "µM"}
    ]},
    {"smiles": "Oc1c(CN2CCSCC2)cc(Cl)c2cccnc12", "values": [
      {"measurement": "inhibition of growth at 1000 µM", "setting": "[3]", "result": "> 50", "unit": "%"}
    ]},
    {"smiles": "Oc1c(CN2CCOCC2)cc(Cl)c2cccnc12", "values": [
      {"measurement": "inhibition of growth at 1000 µM", "setting": "[3]", "result": "> 50", "unit": "%"}
    ]},
    {"smiles": "Cc1ccc(CSc2nnc(N)[nH]2)cc1", "values": [
      {"measurement": "inhibition of growth at 1000 µM", "setting": "[3]", "result": "≤ 26", "unit": "%"},
      {"measurement": "IC50", "setting": "[2]", "result": 3.1, "unit": "µM"}
    ]},
    {"smiles": "CC(C)c1ccc(CSc2nnc(N)[nH]2)cc1", "values": [
      {"measurement": "inhibition of growth at 1000 µM", "setting": "[3]", "result": "≤ 26", "unit": "%"},
      {"measurement": "IC50", "setting": "[2]", "result": "> 250", "unit": "µM"}
    ]},
    {"smiles": "CC(C)(C)c1ccc(CSc2nnc(N)[nH]2)cc1", "values": [
      {"measurement": "inhibition of growth at 1000 µM", "setting": "[3]", "result": "≤ 26", "unit": "%"},
      {"measurement": "IC50", "setting": "[2]", "result": "> 250", "unit": "µM"}
    ]},
    {"smiles": "Oc1ccc(Cl)c2cccnc12", "note": "[CLOXYQUIN]", "values": [
      {"measurement": "inhibition of growth at 1000 µM", "setting": "[3]", "result": "> 50", "unit": "%"}
    ]},
    {"smiles": "Nc1nnc(SCc2ccc(F)cc2)[nH]1", "values": [
      {"measurement": "inhibition of growth at 1000 µM", "setting": "[3]", "result": "≤ 26", "unit": "%"},
      {"measurement": "IC50", "setting": "[2]", "result": 7, "unit": "µM"}
    ]},
    {"smiles": "NC[C@H]1O[C@H](O[C@H]2[C@H](O)[C@@H](O[C@H]3O[C@H](CO)[C@@H](O)[C@H](N)[C@H]3O)[C@H](N)C[C@@H]2N)[C@H](O)[C@@H](O)[C@@H]1O", "values": [
      {"measurement": "inhibition", "setting": "[4]", "result": "Active"}
    ]},
    {"smiles": "O=[N+]([O-])c1ccc(O)c2ncccc12", "note": "[NITROXOLINE]", "values": [
      {"measurement": "growth inhibition (GI)", "setting": "[5]", "result": "Active"},
      {"measurement": "growth inhibition (GI)", "setting": "[6]", "result": "Active"},
      {"measurement": "MBC", "setting": "[7]", "result": 250, "unit": "µM"},
      {"measurement": "growth inhibition (GI)", "setting": "[3]", "result": "Active"},
      {"measurement": "MIC", "setting": "[8]", "result": 31, "unit": "µM"}
    ]},
    {"smiles": "CN(C)Cc1cc([N+](=O)[O-])c2cccnc2c1O", "values": [
      {"measurement": "growth inhibition (GI)", "setting": "[3]", "result": "Active"},
      {"measurement": "IC50", "setting": "[2]", "result": 0.04, "unit": "µM"}
    ]},
    {"smiles": "Oc1cccc2cccnc12", "note": "[OXYQUINOLINE]", "values": [
      {"measurement": "inhibition of growth at 1000 µM", "setting": "[3]", "result": "> 50", "unit": "%"},
      {"measurement": "IC50", "setting": "[9]", "result": "> 15", "unit": "µM"}
    ]},
    {"smiles": "Oc1c(CN2CCCCC2)cc(Cl)c2cccnc12", "values": [
      {"measurement": "inhibition of growth at 1000 µM", "setting": "[3]", "result": "> 50", "unit": "%"},
      {"measurement": "IC50", "setting": "[9]", "result": "> 50", "unit": "µM"}
    ]},
    {"smiles": "Cc1ccc2cccc(O)c2n1", "note": "[8-HYDROXY QUINALDINE]", "values": [
      {"measurement": "inhibition of growth at 1000 µM", "setting": "[3]", "result": "> 50", "unit": "%"},
      {"measurement": "IC50", "setting": "[10]", "result": "> 15", "unit": "µM"},
      {"measurement": "IC50", "setting": "[9]", "result": "> 15", "unit": "µM"}
    ]},
    {"smiles": "CN1CCN(Cc2cc([N+](=O)[O-])c3cccnc3c2O)CC1", "values": [
      {"measurement": "growth inhibition (GI)", "setting": "[11]", "result": "inactive"},
      {"measurement": "growth inhibition (GI)", "setting": "[3]", "result": "Active"},
      {"measurement": "MIC", "setting": "[8]", "result": 500, "unit": "µM"},
      {"measurement": "IC50", "setting": "[2]", "result": 0.07, "unit": "µM"}
    ]},
    {"smiles": "O=S(=O)(O)c1ccc(O)c2ncccc12", "values": [
      {"measurement": "inhibition of growth at 1000 µM", "setting": "[3]", "result": 9, "unit": "%"},
      {"measurement": "IC50", "setting": "[10]", "result": "> 15", "unit": "µM"}
    ]},
    {"smiles": "O=[N+]([O-])c1cc(CN2CCCC2)c(O)c2ncccc12", "values": [
      {"measurement": "growth inhibition (GI)", "setting": "[3]", "result": "Active"},
      {"measurement": "IC50", "setting": "[2]", "result": 0.03, "unit": "µM"}
    ]},
    {"smiles": "O=[N+]([O-])c1cc(CN2CCOCC2)c(O)c2ncccc12", "values": [
      {"measurement": "IC50", "setting": "[2]", "result": 60, "unit": "µM"}
    ]},
    {"smiles": "CN1CCN(Cc2cc(Cl)c3cccnc3c2O)CC1", "values": [
      {"measurement": "inhibition of growth at 1000 µM", "setting": "[3]", "result": "> 50", "unit": "%"}
    ]}
  ]
}
